Data from US20190374506A1, “COMPOSITIONS AND METHODS FOR TREATING CANCER” (BETH ISREAL DEACONESS MEDICAL CENTER, priority 2016, published 2019).

Columns and labels:
[1] = test system: PTEN/AKT pathway in DU145 cells (PTEN competent); assay: Western blot analysis of PTEN/AKT pathway in DU145 cells; type: cell-based, human; settings: different doses of I3C for 3 Days
Experimental: (§1) FIG. 11B provides an analysis of effects of I3C on PTEN/AKT pathway in DU145 or PC3 cells by western blot analysis. Cells were treated with different doses of I3C for 3 Days, and followed by western blot analysis. Whether targeting WWP1/NEDD4-1, thereby enhancing PTEN dimerization and function, could offer a unique opportunity to treat MYC-driven cancers was investigated. […] As there is no small pharmacological inhibitor currently available to suppress/inhibit WWP1 activity, Indole-3-Carbinol (I3C), a potential WWP1 inhibitor, which suppresses the WWP1 activity through binding to its HECT domain, was used. First, to assess the on-target effects of I3C towards WWP1, Wwp1^−/− MEFs were used. […] Additionally, two independent PTEN stably knocked-down cells were generated. […] Western Blotting and Immunoprecipitation. For western blotting, cells were lysed in RIPA buffer (Boston BioProducts) supplemented with protease (Roche) and phosphatase (Roche) inhibitor. Proteins were separated on NuPAGE 4-12% Bis-Tris gradient gels (Invitrogen), transferred to polyvinylidine difluoride membranes (Immobilon P, Millipore) and the blots were probed with the indicated antibodies. For immunoprecipitation, PC3, 293T and MEF cells were transfected with the indicated expression vectors by using LIPOFECTAMIN 2000 (Life Technologies). 24 hours after transfection, cells were lysed in RIPA buffer with protease (Roche) and phosphatase (Roche) inhibitor. 500 μg of total lysates were pre-cleared for 30 minutes at 4° C., and then immunoprecipitated with anti-Myc (Cell Signaling Technology 9B11, 1:500), or anti-PTEN (Cell Signaling Technology 9559, 1:500) antibody overnight at 4° C. The Protein-A or Protein-G sepharose beads (GE Healthcare) were then added and incubated for another 2 hours. The immunoprecipitates were washed with RIPA buffer three times. In denaturing conditions, standard Laemmli-Buffer with 5% final concentration of β-mercaptoethanol was added to the samples, which were then boiled and separated on NuPAGE 4-12% Bis-Tris gradient gels (Invitrogen). […]

[2] = test system: WWP1/NEDD4-1 E3 mediated PTEN K27-linked poly-ubiquitination; assay: In vivo ubiquitination assay (Ni-NTA pull down, western blot) in DU145 cells; type: cell-based, human; settings: 10 μM or 20 μM I3C for 4 Days
Experimental: DU145 cells expressing indicated plasmids were treated with 10 μM or 20 μM of I3C for 4 Days. The ubiquitinated PTEN was pulled down under denaturing conditions by Ni-NTA agarose and analysed by the western blot. Whether targeting WWP1/NEDD4-1, thereby enhancing PTEN dimerization and function, could offer a unique opportunity to treat MYC-driven cancers was investigated. […] As there is no small pharmacological inhibitor currently available to suppress/inhibit WWP1 activity, Indole-3-Carbinol (I3C), a potential WWP1 inhibitor, which suppresses the WWP1 activity through binding to its HECT domain, was used. First, to assess the on-target effects of I3C towards WWP1, Wwp1^−/− MEFs were used. […] Additionally, two independent PTEN stably knocked-down cells were generated. […] To analyse in vivo ubiquitination of PTEN, cells were transfected with various constructs, together with His-Ubiquitin and Myc-PTEN. Cells were lysed by buffer A (6 M guanidine-HCl, Na2HPO4/NaH2PO4 [pH 8.0], and 10 mM imidazole), and lysates were incubated with Ni-NTA agarose for 1.5 hours at 4° C. The beads were washed once with buffer A, twice with buffer ANTI (1 vol buffer A: 3 vol buffer TI [25 mM Tris-HCl, pH 6.8, and 20 mM imidazole]), and three times with buffer TI, and then analysed by western blot. In all experiments, an equal amount of His-Ubiquitin expression was verified by western blot analysis.

DU145 cells = assay: Growth curves, colorimetric MTT assay, DU145 cells; type: cell-based, human; settings: various doses of I3C for 5 Days
Excerpt: (§2) FIG. 11C provides growth curves of DU145 (PTEN competent) or PC3 cells (PTEN null) treated with various doses of I3C for 5 Days, and then assayed with colorimetric MTT assay (three experiments). Whether targeting WWP1/NEDD4-1, thereby enhancing PTEN dimerization and function, could offer a unique opportunity to treat MYC-driven cancers was investigated. […] As there is no small pharmacological inhibitor currently available to suppress/inhibit WWP1 activity, Indole-3-Carbinol (I3C), a potential WWP1 inhibitor, which suppresses the WWP1 activity through binding to its HECT domain, was used. First, to assess the on-target effects of I3C towards WWP1, Wwp1^−/− MEFs were used. […] Additionally, two independent PTEN stably knocked-down cells were generated.

[3] = literature statement; cited from earlier work
PC3 cells (PTEN-null) = assay: Growth curves, colorimetric MTT assay, PC3 cells; type: cell-based, human; settings: various doses of I3C for 5 Days
Excerpt: as §2

[4] = test system: PTEN/AKT pathway in PC3 cells (PTEN-null); assay: Western blot analysis of PTEN/AKT pathway in PC3 cells; type: cell-based, human; settings: different doses of I3C for 3 Days
Experimental: as §1, with “Technologies).” for “Technologies). 24 hours after transfection, cells were lysed in RIPA buffer with protease (Roche) and phosphatase (Roche) inhibitor. 500 μg of total lysates were pre-cleared for 30 minutes at 4° C., and then immunoprecipitated with anti-Myc (Cell Signaling Technology 9B11, 1:500), or anti-PTEN (Cell Signaling Technology 9559, 1:500) antibody overnight at 4° C. The Protein-A or Protein-G sepharose beads (GE Healthcare) were then added and incubated for another 2 hours. The immunoprecipitates were washed with RIPA buffer three times. In denaturing conditions, standard Laemmli-Buffer with 5% final concentration of β-mercaptoethanol was added to the samples, which were then boiled and separated on NuPAGE 4-12% Bis-Tris gradient gels (Invitrogen).”

OCc1c[nH]c2ccccc12 [I3C, indole-3-carbinol]
AKT activation [1]: dose-dependent AKT suppression | PTEN protein level [1]: without affecting PTEN protein level | apoptosis [1]: concomitant induction of apoptosis | PTEN K27-linked poly-ubiquitination [2]: robustly diminished | cell growth (DU145 cells): drastic inhibition of cell growth | toxicity [3]: negligible toxicity | cell growth (PC3 cells (PTEN-null)): only modestly suppressed cell growth | effects on AKT suppression and apoptosis [4]: only negligible effects
